According to patent US7300943B2, “GSK-3 inhibitors” (Pfizer Inc., priority 2003, dated 2007):
Where a name gives a salt, the structure may show the parent alone.

Target: T1, GSK-3 (Homo sapiens, UniProt P49841)
T1 construct: made in house
Assay: GSK-3 inhibition, cell-free 33P-ATP peptide substrate SPA assay
Assay type: biochemical
Settings: read-out: inhibitory activity, expressed as IC50's, against GSK-3
Description: The specific activities of the compounds of formula (I) in inhibiting GSK-3 can be determined in both cell-free and cell-based assays, both of which have been previously described in the relevant art. See, for example, U.S. Pat. Nos. 6,417,185 and 6,489,344, the disclosures of which are incorporated herein by reference in their entirety.
A cell-free assay can be generally carried out by incubating GSK-3 with a peptide substrate, radiolabeled ATP (e.g., for example, γ^33P- or γ^32P-ATP, both of which are available from Amersham; Arlington Heights, Ill.), magnesium ions, and the compound to be assayed. […] The amount of γ^33P or γ^32P remaining in each well after washing is then quantified to determine the amount of radiolabeled phosphate incorporated into the peptide substrate. […]
Another example of a GSK-3 assay, similar to the one described hereinabove, is as follows: enzyme activities are assayed as the incorporation of ^33P from gamma phosphate of ^33P-ATP (Amersham; Arlington Heights, Ill.; catalog #AH-9968) into biotinylated peptide substrate PKTP-KKAKKL. […] The final concentration of ATP is 0.5 μM (final specific radioactivity of 4 μCi/nmol), and the final concentration of substrate is 0.75 μM. […] Radioactivity associated with the beads is then quantified by scintillation counting. […]

T1 sequence (P49841 whole entry): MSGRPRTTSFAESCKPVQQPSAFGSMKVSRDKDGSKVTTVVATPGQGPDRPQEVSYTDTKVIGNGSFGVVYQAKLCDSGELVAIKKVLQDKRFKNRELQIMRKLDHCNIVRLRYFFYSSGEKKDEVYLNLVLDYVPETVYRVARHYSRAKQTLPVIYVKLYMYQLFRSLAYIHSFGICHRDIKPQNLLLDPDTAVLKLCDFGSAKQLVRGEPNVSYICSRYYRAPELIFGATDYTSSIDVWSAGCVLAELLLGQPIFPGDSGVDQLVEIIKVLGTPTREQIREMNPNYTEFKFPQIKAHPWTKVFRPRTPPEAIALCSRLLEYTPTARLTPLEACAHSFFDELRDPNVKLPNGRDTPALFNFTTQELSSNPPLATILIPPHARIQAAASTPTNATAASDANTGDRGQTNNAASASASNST

IC50: 36 nM
SMILES: O=c1cc(-c2ccccc2)c2c(C3CCC3)[nH]nc2[nH]1 [Example 5, 3-Cyclobutyl-4-phenyl-2,7-dihydro-pyrazolo[3,4-b]yridin-6-one hydrochloride]
